Experimental findings from patent US8748483B2, “Use of substituted pyranone acid derivatives for the treatment of metabolic syndrome” (SANOFI, priority 2007, dated 2014) are described below.

Experiment [1] concerns the target T1, GPCR HM74A (niacin receptor) (Homo sapiens, UniProt Q8TDS4).
T1 construct: expressed in transfected cells; host or cells: HEK293
Description: FLIPR in vitro functional assay, intracellular Ca2+ in recombinant HEK293 cells expressing HM74A and Gα6qi4myr. In kind it is cell-based. The settings on record: 100% = 1 μM niacin. On the procedure: Function-testing assays were carried out by means of the FLIPR technique (“Fluorescence Imaging Plate Reader”, Molecular Devices Corp.). For this purpose, agonist-induced changes in the intracellular concentration of Ca^2+ in recombinant HEK293 cells which express both the GPCR HM74A (niacin receptor) and the hybrid G-protein Gα6qi4myr (see, for example, DE patent application 10033353) were determined.
For the investigations, cells were seeded into 96-well microtiter plates (60 000 cells/well) and allowed to grow overnight. The medium was removed and the cells were incubated in buffer which contained the fluorescent dye Fluo-4. After this loading with dye, the cells were washed, test substance was added, and changes in the intracellular Ca^2+ concentration were measured in the FLIPR apparatus. Results have been shown as percentage change relative to the control (0%: no test substance added; 100%:1 μM reference agonist niacin added), used to calculate dose/activity plots and EC50 values determined.

In a further experiment the test system is lipolysis. Description: Inhibition of lipolysis in the whole animal after p.o. administration (FFA, glycerol, triglycerides in blood). Type of experiment: in vivo, Wistar rats. On the procedure:
The effect was tested on the whole animal (mouse, rat, hamster or dog), after a fasting period (e.g. of about 16 hours the substance is administered (e.g. p.o., iv., i.p., s.c.) and, with or without additional stimulation of endogenous lipolysis (e.g. by a bolus injection of 2 mg/kg i.p. isoprenaline), the effect of the test substance on lipolysis is determined on the basis of the liberated free fatty acids (FFA), glycerol and triglycerides by obtaining a blood sample (e.g. by retroorbital blood sampling) e.g. 15 min, 30, 60, 120 etc minutes after p.o. administration, and analyzing by standard methods of clinical chemistry (e.g. L. Thomas: Labor and Diagnose, 2nd edition, Medizinische Verlagsgesellschaft, Marburg/L. 1984; ISBN 3-921320-10-9)). The inhibition of lipolysis by the inhibitors is analyzed by comparing with the rate of lipolysis in correspondingly treated control animals.

[2] abbreviates: 3 mg/kg po, 15 min, Wistar rats.
[3] abbreviates: 3 mg/kg po, 30 min, Wistar rats.
[4] abbreviates: 3 mg/kg po, 60 min, Wistar rats.
[5] abbreviates: 3 mg/kg po, 120 min, Wistar rats.
Where [6] appears, read: 3 mg/kg po, time 0, Wistar rats.
The mark [7] stands for this setting: 1 mg/kg po, 30 min, Wistar rats.
[8] abbreviates: 1 mg/kg po, 60 min, Wistar rats.
The mark [9] stands for this setting: 1 mg/kg po, 120 min, Wistar rats.
[10] abbreviates: 1 mg/kg po, time 0, Wistar rats.
Where [11] appears, read: 10 mg/kg po, 30 min, Wistar rats.
Setting [12] is: 10 mg/kg po, 60 min, Wistar rats.
The mark [13] stands for this setting: 10 mg/kg po, 120 min, Wistar rats.
Where [14] appears, read: 10 mg/kg po, time 0, Wistar rats.

pEC50: −log10 of the molar value.

T1 sequence (Q8TDS4 whole entry): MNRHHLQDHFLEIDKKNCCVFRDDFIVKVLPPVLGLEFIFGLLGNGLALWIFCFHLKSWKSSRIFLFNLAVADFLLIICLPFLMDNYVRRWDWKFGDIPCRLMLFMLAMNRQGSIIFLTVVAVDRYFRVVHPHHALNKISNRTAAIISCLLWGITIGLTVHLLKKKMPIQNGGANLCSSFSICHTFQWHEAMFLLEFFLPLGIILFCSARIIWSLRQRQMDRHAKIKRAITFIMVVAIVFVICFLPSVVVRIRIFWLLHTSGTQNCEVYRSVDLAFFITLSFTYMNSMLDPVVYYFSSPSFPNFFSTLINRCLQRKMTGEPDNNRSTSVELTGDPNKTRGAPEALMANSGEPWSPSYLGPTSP

For `O=C(O)c1cc(=O)c(OCc2ccc(Cl)cc2)co1` [Example 31], the pEC50 – broadly, the negative decadic logarithm of the EC50, by convention in mol/L – in experiment [1] was 5.13.

For the molecule `CCCc1oc(C(=O)O)cc(=O)c1OCc1ccc(C)cc1` [Example 21, 5-(4-methylbenzyloxy)-4-oxo-6-propyl-4H-pyran-2-carboxylic acid], the negative-log EC50 (pEC50) in experiment [1] was 5.36.

For `CCOC(=O)/C=C/c1coc(C(=O)O)cc1=O` [Example 40, 5-((E)-2-ethoxycarbonylvinyl)-4-oxo-4H-pyran-2-carboxylic acid], the pEC50 in experiment [1] was 5.92.

Turning to `CCC/C=C/c1coc(C(=O)O)cc1=O` [Example 43], in experiment [1], the pEC50 was 5.99.

Consider `CCC(C)c1coc(C(=O)O)cc1=O` (stereo not drawn) [Example 50], for which the “lipolysis (reduction in FFA, glycerol and triglycerides)” value in the experiment on lipolysis (3 mg/kg po) was “distinctly reduced”. Besides, the FFA with lipolysis (setting [2]) was determined as 0.34 mmol/L; in the experiment with lipolysis (setting [3]) it was 0.43 mmol/L; in the experiment with lipolysis (setting [4]), 0.50 mmol/L; in the experiment on lipolysis (setting [5]), 0.52 mmol/L; with lipolysis (setting [6]), 0.64 mmol/L. Besides, the Glycerol came out at 67 µmol/L in the experiment with lipolysis (setting [2]); 82 µmol/L in the experiment on lipolysis (setting [3]); 86 µmol/L with lipolysis (setting [4]); 101 µmol/L in the experiment with lipolysis (setting [5]); 127 µmol/L with lipolysis (setting [6]). For the same molecule, the Triglycerides with lipolysis (setting [2]) came out at 0.39 mmol/L; in the experiment on lipolysis (setting [3]), 0.36 mmol/L; with lipolysis (setting [4]), 0.58 mmol/L; with lipolysis (setting [5]), 0.71 mmol/L; with lipolysis (setting [6]), 0.47 mmol/L. In experiment [1], the pEC50 was 6.80.

Consider `CC(C)c1coc(C(=O)O)cc1=O` [Example 52], for which the pEC50 in experiment [1] was 5.57.

Take `CCCCc1coc(C(=O)O)cc1=O` [Example 47]: the “lipolysis (reduction in FFA, glycerol and triglycerides)” value in the experiment with lipolysis (1 mg/kg po) is listed as “distinctly reduced”. Further, the FFA in the experiment with lipolysis (setting [7]) came out at 0.25 mmol/L; in the experiment with lipolysis (setting [8]) it was 0.37 mmol/L; with lipolysis (setting [9]), 0.41 mmol/L; with lipolysis (setting [10]), 0.84 mmol/L. The Glycerol in the experiment with lipolysis (setting [7]) was 41 µmol/L; in the experiment on lipolysis (setting [8]), 55 µmol/L; in the experiment with lipolysis (setting [9]) it was 70 µmol/L; in the experiment on lipolysis (setting [10]), 162 µmol/L. The Triglycerides was found to be 0.25 mmol/L with lipolysis (setting [7]), 0.37 mmol/L with lipolysis (setting [8]), 0.41 mmol/L in the experiment with lipolysis (setting [9]) and 0.84 mmol/L in the experiment with lipolysis (setting [10]). Moreover, the pEC50 in experiment [1] is 8.00.

In the case of `CC(C)COc1coc(C(=O)O)cc1=O` [Example 26], the pEC50 in experiment [1] was 4.34.

As for `Cc1ccc(COc2coc(C(=O)O)cc2=O)cc1` [Example 2, 5-(4-methylbenzyloxy)-4-oxo-4H-pyran-2-carboxylic acid], the pEC50 in experiment [1] is 5.39.

In the case of `C/C=C/c1oc(C(=O)O)cc(=O)c1OCc1ccc(C)cc1` [Example 16, 5-(4-methylbenzyloxy)-4-oxo-6-propenyl-4H-pyran-2-carboxylic acid], the pEC50 in experiment [1] was 7.00.

As to `N#Cc1ccc(COc2coc(C(=O)O)cc2=O)cc1` [Example 10], the pEC50 in experiment [1] was 4.83.

In the case of `CCCc1coc(C(=O)O)cc1=O` [Example 48, 5-propyl-4-oxo-4H-pyran-2-carboxylic acid], in the experiment with lipolysis (10 mg/kg po), the “lipolysis (reduction in FFA, glycerol and triglycerides)” value is given as “distinctly reduced”. The FFA amounted to 0.19 mmol/L with lipolysis (setting [11]), 0.19 mmol/L in the experiment on lipolysis (setting [12]), 0.16 mmol/L with lipolysis (setting [13]) and 0.51 mmol/L in the experiment on lipolysis (setting [14]). For the same molecule, the Glycerol was found to be 35 µmol/L in the experiment on lipolysis (setting [11]), 26 µmol/L in the experiment on lipolysis (setting [12]), 24 µmol/L in the experiment with lipolysis (setting [13]) and 100 µmol/L in the experiment on lipolysis (setting [14]). In addition, the Triglycerides amounted to 0.36 mmol/L with lipolysis (setting [11]), 0.25 mmol/L in the experiment on lipolysis (setting [12]), 0.27 mmol/L in the experiment on lipolysis (setting [13]) and 0.41 mmol/L in the experiment on lipolysis (setting [14]). Further, the pEC50 in experiment [1] is 7.30.

In the case of `CC(C)CCc1coc(C(=O)O)cc1=O` [Example 49, 5-(3-methylbutyl)-4-oxo-4H-pyran-2-carboxylic acid], the pEC50 in experiment [1] was 6.68.

`O=C(O)c1cc(=O)c(OCc2cccc(F)c2)co1` [Example 7]: the pEC50 in experiment [1] was 4.20.

Consider `CC(C)Cc1coc(C(=O)O)cc1=O` [Example 51], for which, in experiment [1], the negative logarithm of the EC50 (pEC50) is 6.66.

Consider `CCc1ccc(COc2coc(C(=O)O)cc2=O)cc1` [Example 30], for which the pEC50 in experiment [1] was 5.49.

Consider `O=C(O)c1cc(=O)c(OCc2ccccc2)co1` [Example 3], for which the pEC50 in experiment [1] was 4.54.

Consider `C/C=C/c1oc(C(=O)O)cc(=O)c1OCc1ccc([N+](=O)[O-])cc1` [Example 17], for which, in experiment [1], the negative-log EC50 (pEC50) was 6.62.

In the case of `C/C=C/c1oc(C(=O)O)cc(=O)c1OCCCCC` [Example 19], in experiment [1], the pEC50 is 6.41.

As for `CCCCCc1coc(C(=O)O)cc1=O` [Example 46], the pEC50 in experiment [1] is 8.00.

For `O=C(O)c1cc(=O)c(/C=C/CCc2ccccc2)co1` [Example 45], in experiment [1], the pEC50 was 4.96.

Consider `N#Cc1cccc(COc2coc(C(=O)O)cc2=O)c1` [Example 15], for which the pEC50 in experiment [1] is 4.17.

For `CC(C)Oc1coc(C(=O)O)cc1=O` [Example 27], the negative-log EC50 (pEC50) in experiment [1] is 5.34.

On to `C/C=C/c1oc(C(=O)O)cc(=O)c1OCc1ccc(C#N)cc1` [Example 18], for which, in experiment [1], the pEC50 was 6.44.

As for `O=C(O)c1cc(=O)c(OCc2ccccc2F)co1` [Example 14], the pEC50 in experiment [1] is 4.92.

For the molecule `Cc1ccc(C(=O)Oc2coc(C(=O)O)cc2=O)cc1` [Example 35], in experiment [1], the pEC50 was 5.92.

For the molecule `CCCCOc1coc(C(=O)O)cc1=O` [Example 6], the pEC50 in experiment [1] is 4.28.

Consider `N#Cc1ccc(C(=O)Oc2coc(C(=O)O)cc2=O)cc1` [Example 34], for which the pEC50 in experiment [1] was 6.51.

On to `Cc1cc(C)cc(COc2coc(C(=O)O)cc2=O)c1` [Example 11], for which the pEC50 in experiment [1] was 4.51.

For `O=C(O)c1cc(=O)c(OCCCF)co1` [Example 25], in experiment [1], the pEC50 was 6.12.

For `O=C(O)c1cc(=O)c(OCC(F)(F)F)co1` [Example 24], the negative-log EC50 (pEC50) in experiment [1] was 6.00.

In the case of `CC(C)OC(=O)/C=C/c1coc(C(=O)O)cc1=O` [Example 41], the pEC50 in experiment [1] is 5.16.

As for `C=C(CCC)c1coc(C(=O)O)cc1=O` [Example 42], the negative-log EC50 (pEC50) in experiment [1] is 5.18.

On to `CC(C)c1ccc(COc2coc(C(=O)O)cc2=O)cc1` [Example 32], for which, in experiment [1], the pEC50 is 5.83.

As for `Cc1ccc(/C=C/c2coc(C(=O)O)cc2=O)cc1` [Example 44], the pEC50 in experiment [1] is 5.32.

In the case of `O=C(O)c1cc(=O)c(OCc2ccc(F)cc2)co1` [Example 12], the pEC50 in experiment [1] was 4.31.

`O=C(O)c1cc(=O)c(OCc2ccc([N+](=O)[O-])cc2)co1` [Example 9]: in experiment [1], the pEC50 was 4.36.

With `CCCc1oc(C(=O)O)cc(=O)c1OCc1ccc(C#N)cc1` [Example 22], in experiment [1], the pEC50 is 4.35.

On to `COC(=O)/C=C/c1coc(C(=O)O)cc1=O` [Example 39], for which the negative logarithm of the EC50 (pEC50) in experiment [1] was 5.92.

In the case of `C/C=C/c1oc(C(=O)O)cc(=O)c1CCCC` [Example 38], the negative logarithm of the EC50 (pEC50) in experiment [1] is 6.85.

Turning to `O=C(O)c1cc(=O)c(OCc2cccc(Cl)c2)co1` [Example 13], in experiment [1], the pEC50 was 4.71.

As to `O=C(O)c1cc(=O)c(OCc2cccc([N+](=O)[O-])c2)co1` [Example 8], the pEC50 in experiment [1] is 4.43.

On to `C=CCOc1coc(C(=O)O)cc1=O` [Example 4], for which the negative logarithm of the EC50 (pEC50) in experiment [1] is 4.52.

For `C/C=C/c1oc(C(=O)O)cc(=O)c1OCC` [Example 20], the pEC50 in experiment [1] is 6.14.

For `C/C=C/c1oc(C(=O)O)cc(=O)c1OCC(F)(F)F` [Example 36], in experiment [1], the pEC50 was 7.15.

Take `CCCCCCOc1coc(C(=O)O)cc1=O` [Example 23]: the negative-log EC50 (pEC50) in experiment [1] is 4.47.

With `CCCc1cc(=O)cc(C(=O)O)o1` [Example 37, 6-propyl-4-oxo-4H-pyran-2-carboxylic acid], the negative-log EC50 (pEC50) in experiment [1] was 4.18.

As to `O=C(O)c1cc(=O)c(OCc2ccc(OC(F)(F)F)cc2)co1` [Example 33], in experiment [1], the pEC50 is 4.65.

On to `O=C(O)c1cc(=O)c(OCc2ccc(OC(F)F)cc2)co1` [Example 28], for which, in experiment [1], the pEC50 is 5.74.

For `CCCCCOc1coc(C(=O)O)cc1=O` [Example 5], the pEC50 in experiment [1] was 5.92.

As to `O=C(O)c1cc(=O)c(OCc2ccc(C(F)(F)F)cc2)co1` [Example 29], the pEC50 in experiment [1] was 4.35.
